Assay results taken from article PMC5016780, “Development of a Cell-penetrating Peptide that Exhibits Responsive Changes in its Secondary Structure in the Cellular Environment” (Scientific Reports, 2016).
Entries after “also recorded” stand apart in the source; their conditions may differ. Non-standard residues stand in square brackets, D forms with d. Residues, ends and D or L forms follow the SMILES beside them. *: point of attachment. 5FAM = O=C1OC2(c3ccc(O)cc3Oc3cc(O)ccc32)c2ccc(C(=O)*)cc21; Pro(cis-4-guanidino) = NC(N)=N[C@@H]1CN[C@H](C(=O)O)C1; Pro(4S-NH2) = N[C@@H]1CN[C@H](C(=O)O)C1; βAla = NCCC(=O)O

Assays:
[1] = Peptide stability in culture medium containing 10% FBS (pre-incubation uptake and LC-MS); format: in vitro ADME; details: 0–24 h at 37 °C, then 2 hr with HeLa cells at 37 °C (1 μM, flow cytometry), and LC-MS analysis, 1–24 hr in culture medium containing 10% FBS
Experimental: Figure S8. (a) Cellular uptake of the peptides 1-5 after 1-24 h pre-incubation (peptide concentration: 1 µM). Values are the means ± standard deviation of three independent Figure 5b. Cellular uptake of the peptides 1-5 LC-MS analsisys. the stability of the peptides (1-24 hr) after 1-24 hr pre-incubation. in culture media containing 10% FBS using LC-MS. cultures. (b) The peptides’ stability (1-24 hr) analysis in culture medium containing FBS using LCCytotoxicity-MS. […]

HeLa cells [2] = assay: Time course of cellular uptake (1–24 hr); format: cell-based; details: 37 °C, 1 μM peptide; for stability in culture medium / cellular environment, as concluded from the uptake time course: culture medium containing fetal bovine serum (FBS)
Experimental: The results of the cytotoxicity analysis, in which HeLa cells were treated with peptides 1–5 for 24 hr at concentrations of 1, 4, and 8 μM, are shown in Fig. S9. […] Next, we investigated the intracellular uptake pathways of R9 and peptide 3. In the presence of various endocytosis inhibitors (amiloride, a macropinocytosis inhibitor[37]; nystatin, a caveolae-mediated endocytosis inhibitor[38]; and sucrose, a clathrin-mediated endocytosis inhibitor[39]), the migration levels of R9 and 3 into the HeLa cells were compared (Fig. S10). […] Then, we investigated the intracellular localization and dynamic behavior of R9 and 3 using fluorescence microscopy. The cells’ late endosomes/lysosomes were stained with LysoTracker Red (red), and their nuclei were stained with Hoechst 33342 (blue). […] As a general approach, peptides that can change their helical structures in accordance with pH fluctuations are often used to promote escape from endosomes. […] We considered that peptide 3 might also directly penetrate the cell membrane more efficiently than R9 (R9 passes through the cell membrane via not only endocytosis but also non-endocytosis pathway, that is, direct permeation to the cell membrane)[44]. Therefore, we investigated the intracellular uptake of peptide 3 at low temperature using flow cytometry and fluorescence microscopy. At low temperature, energy-dependent pathways such as endocytosis are inhibited so it is possible to assess direct peptide penetration via energy-independent pathways. […] Peptides that can directly penetrate through the cell membrane can be used for efficient intracellular delivery as they are not affected by problems associated with the need to escape from endosomes.
Figure 5 (a) Cellular uptake of the peptides 1–5 and R9 after 1–24 hr (peptide concentration: 1 μM). Values are the means ± standard deviation of three independent cultures. (b,c) Peptide 3 and R9 were colocalized with lysosome marker. HeLa cells were treated with 10 μM peptides at 37 °C for 2 hr. The acidic late endosomes/lysosomes were stained with LysoTracker Red (red), and the nuclei were stained with Hoechst 33342 (blue). The scale bars represent 50 μm.
HeLa, A549, Jurkat and CHO-K1 cells were seeded in 6-well dishes at a density of 4.0 × 10^6 cells/well and cultured in DMEM (HeLa, A549), RPMI-1640 (Jurkat) and Ham’s F-12 (CHO-K1) for 24 hr, respectively. The cells were treated with each peptide (peptide concentration; 1 μM) and incubated for each time (1, 2, 4, 8, 16 and 24 hr). Then, the cells were washed three times with phosphate buffer (PBS) supplemented with heparin (20 units/mL) and detached by treatment of trypsin-EDTA. […] Then, the collected cells were suspended in 500 μL of PBS buffer and mean fluorescence intensity in cells was measured by flow cytometer. […]

HeLa cells [3] = assay: Uptake in the presence of endocytosis inhibitors; format: cell-based; details: amiloride 25 μM, sucrose 0.4 M or nystatin 25 μg/mL, 1 μM peptide, 1 hr, flow cytometry
Experimental: The results of the cytotoxicity analysis, in which HeLa cells were treated with peptides 1–5 for 24 hr at concentrations of 1, 4, and 8 μM, are shown in Fig. S9. […] Next, we investigated the intracellular uptake pathways of R9 and peptide 3. In the presence of various endocytosis inhibitors (amiloride, a macropinocytosis inhibitor[37]; nystatin, a caveolae-mediated endocytosis inhibitor[38]; and sucrose, a clathrin-mediated endocytosis inhibitor[39]), the migration levels of R9 and 3 into the HeLa cells were compared (Fig. S10). […] Then, we investigated the intracellular localization and dynamic behavior of R9 and 3 using fluorescence microscopy. The cells’ late endosomes/lysosomes were stained with LysoTracker Red (red), and their nuclei were stained with Hoechst 33342 (blue). […] Therefore, we investigated the intracellular uptake of peptide 3 at low temperature using flow cytometry and fluorescence microscopy. […]
The cells were seeded onto 6-well culture plates (400,000 cells/well) and incubated overnight in 2 mL of DMEM containing 10% FBS. […] Then, fluorescence intensity in the cells was measured as above. […] Statistical differences were analyzed by Student’s t-test. […]
Figure S11. Fluorescence microscopy images of HeLa cells that had been treated with […]

HeLa cells [4] = assay: Intracellular localization by fluorescence microscopy (endosomal escape); format: cell-based; details: 10 μM peptide, 37 °C, 15 min–2 hr, LysoTracker Red and Hoechst 33342 staining
Experimental: The results of the cytotoxicity analysis, in which HeLa cells were treated with peptides 1–5 for 24 hr at concentrations of 1, 4, and 8 μM, are shown in Fig. S9. […] Next, we investigated the intracellular uptake pathways of R9 and peptide 3. In the presence of various endocytosis inhibitors (amiloride, a macropinocytosis inhibitor[37]; nystatin, a caveolae-mediated endocytosis inhibitor[38]; and sucrose, a clathrin-mediated endocytosis inhibitor[39]), the migration levels of R9 and 3 into the HeLa cells were compared (Fig. S10). […] Then, we investigated the intracellular localization and dynamic behavior of R9 and 3 using fluorescence microscopy. The cells’ late endosomes/lysosomes were stained with LysoTracker Red (red), and their nuclei were stained with Hoechst 33342 (blue). […] As a general approach, peptides that can change their helical structures in accordance with pH fluctuations are often used to promote escape from endosomes. […] Therefore, we investigated the intracellular uptake of peptide 3 at low temperature using flow cytometry and fluorescence microscopy. […]
Figure S11. Fluorescence microscopy images of HeLa cells that had been treated with 10 µM of peptides [(a) peptide 3, (b) R9, (c) peptide 2] for 15 min-2 hr at 37 °C. […]
Figure S12. Fluorescence microscopy images of HeLa cells that had been treated with 10 µM of peptides [(a) R9, (b) peptide 3, (c) peptide 2] for 2 hr at 37 °C. […]

Row | Compound | cell-penetrating ability and stability after pre-incubation in medium (in words) [1] | stability in culture medium / cellular environment, as concluded from the uptake time course (HeLa cells [2]) | cellular uptake over incubation time (in words) (HeLa cells [2]; medium containing FBS, flow cytometry, three independent cultures) | effect of endocytosis inhibitors on uptake (in words) (HeLa cells [3]) | endosomal escape / localization (in words) (HeLa cells [4])
1 | N=C(N)NCCC[C@H](NC(=O)CCNC(=O)c1ccc2c(c1)C(=O)OC21c2ccc(O)cc2Oc2cc(O)ccc21)C(=O)N[C@@H](CCCNC(=N)N)C(=O)N1CCC[C@H]1C(=O)N[C@@H](CCCNC(=N)N)C(=O)N[C@@H](CCCNC(=N)N)C(=O)N1CCC[C@H]1C(=O)N[C@@H](CCCNC(=N)N)C(=O)N[C@@H](CCCNC(=N)N)C(=O)N1CCC[C@H]1C(=O)NCC(=O)NCC(=O)NCC(N)=O [peptide 1, FAM-β-Ala-(L-Arg-L-Arg-L-Pro)3-(Gly)3-NH2] (HELM PEPTIDE1{[O=C1OC2(c3ccc(O)cc3Oc3cc(O)ccc32)c2ccc(C(=O)[*:2])cc21].[bAla].R.R.P.R.R.P.R.R.P.G.G.G.[am]}$$$$V2.0) | sharply fell as the pre-incubation time increased | – | – | – | –
2 | N=C(N)NCCC[C@H](NC(=O)CCNC(=O)c1ccc2c(c1)C(=O)OC21c2ccc(O)cc2Oc2cc(O)ccc21)C(=O)N[C@@H](CCCNC(=N)N)C(=O)N1C[C@@H](N)C[C@H]1C(=O)N[C@@H](CCCNC(=N)N)C(=O)N[C@@H](CCCNC(=N)N)C(=O)N1C[C@@H](N)C[C@H]1C(=O)N[C@@H](CCCNC(=N)N)C(=O)N[C@@H](CCCNC(=N)N)C(=O)N1C[C@@H](N)C[C@H]1C(=O)NCC(=O)NCC(=O)NCC(N)=O [peptide 2, FAM-β-Ala-(L-Arg-L-Arg-L-Pro^NH2)3-(Gly)3-NH2] ({5FAM-βAla}-RR[Pro(4S-NH2)]RR[Pro(4S-NH2)]RR[Pro(4S-NH2)]GGG-NH2) | more chemically stable than R9 and peptide 1 | – | – | – | –
3 | N=C(N)NCCC[C@H](NC(=O)CCNC(=O)c1ccc2c(c1)C(=O)OC21c2ccc(O)cc2Oc2cc(O)ccc21)C(=O)N[C@@H](CCCNC(=N)N)C(=O)N1C[C@@H](NC(=N)N)C[C@H]1C(=O)N[C@@H](CCCNC(=N)N)C(=O)N[C@@H](CCCNC(=N)N)C(=O)N1C[C@@H](NC(=N)N)C[C@H]1C(=O)N[C@@H](CCCNC(=N)N)C(=O)N[C@@H](CCCNC(=N)N)C(=O)N1C[C@@H](NC(=N)N)C[C@H]1C(=O)NCC(=O)NCC(=O)NCC(N)=O [peptide 3, FAM-β-Ala-(L-Arg-L-Arg-L-Pro^Gu)3-(Gly)3-NH2] ({5FAM-βAla}-RR[Pro(cis-4-guanidino)]RR[Pro(cis-4-guanidino)]RR[Pro(cis-4-guanidino)]GGG-NH2) | more chemically stable than R9 and peptide 1; also recorded: remained stable in the medium containing FBS | more stable than R9 | – | – | –
4 | N=C(N)NCCC[C@H](NC(=O)CCNC(=O)c1ccc2c(c1)C(=O)OC21c2ccc(O)cc2Oc2cc(O)ccc21)C(=O)N[C@@H](CCCNC(=N)N)C(=O)N1C[C@@H](NC(=N)N)C[C@H]1C(=O)N1C[C@@H](NC(=N)N)C[C@H]1C(=O)N[C@@H](CCCNC(=N)N)C(=O)N[C@@H](CCCNC(=N)N)C(=O)N[C@@H](CCCNC(=N)N)C(=O)N[C@@H](CCCNC(=N)N)C(=O)N1C[C@@H](NC(=N)N)C[C@H]1C(=O)NCC(=O)NCC(=O)NCC(N)=O [peptide 4, FAM-β-Ala-(L-Arg)2-(L-Pro^Gu)2-(L-Arg)4-L-Pro^Gu-(Gly)3-NH2] ({5FAM-βAla}-RR[Pro(cis-4-guanidino)][Pro(cis-4-guanidino)]RRRR[Pro(cis-4-guanidino)]GGG-NH2) | – | more stable than R9 | – | – | –
5 | nona-arginine [R9, reference compound] | sharply fell as the pre-incubation time increased | unstable | gradually decreased after 1-hr incubation | decreased by treatment with amiloride or sucrose | co-localized with the late endosomes/lysosomes
